Results as given in patent US20220395487A1, “RIG-I INNATE IMMUNE RECEPTOR ANTAGONISTS AND METHODS OF USING SAME” (YALE UNIVERSITY, priority 2019, published 2022).

Tested on: A549 cells
Experiment: qRT-PCR of metabolism and stress marker genes (ACTB, GAPDH, p21, BAX) in A549 cells
Format: cell-based, human
Details: p21, BAX by qRT-PCR
Description: In the second assay, inhibition of RIG-I that is endogenously expressed in A549 cells was evaluated by monitoring IFN and ISG levels by qRT-PCR. A549 cells were propagated in T75 flasks containing Dulbecco's Modified Eagle Medium, DMEM, (Life Technologies) supplemented with 10% heat-inactivated fetal bovine serum (Hyclone) and Non-Essential Amino Acids (Life Technologies). For the assay, 0.5 ml of cells at 100,000 cells/ml was seeded in 24-well plates. After 24 h, DMEM growth media was replaced with media containing drug, as described above for the IFN induction assay using HEK293T cells. After 30 minutes, the cells were transfected with 1 μg of the synthetic stem-loop RNA (SLR14), using the Lipofectamine 2000 transfection reagent. After 5-6 hours, cells were harvested and total RNA was isolated using E.Z.N.A total RNA isolation kit (Omega Bio-tek), following the manufacturer's instructions. […] Each sample was analyzed in triplicate and normalized to HPRT expression. Gene expression quantification was performed according to the Livak ΔΔCt method.
These experiments were consistent with a target-specific response to the compounds. […] To evaluate interference with cell growth or viability, genes that represent markers of cell metabolism and stress response (ACTB, GAPDH, p21, BAX) were also simultaneously monitored. […]

Compound: CCC1(CC)C(=O)N=C2C1=C(OCc1ccccc1)C(=O)c1ccccc12 [RIG012, 4-Benzyloxy-3,3-diethyl-2H,3H,5H-benzo[g]indole-2,5-dione]
- expression of genes involved in cell viability and metabolism: unaffected
